What was measured:
Assay in all cases: relative viability (nuclei count vs DMSO), 5 days (fraction); higher = more cells survive
AZD5582 + Lapatinib = compound: C[C@@H](C(=O)N[C@@H](C1CCCCC1)C(=O)N2CCC[C@H]2C(=O)N[C@@H]3[C@@H](CC4=CC=CC=C34)OCC#CC#CCO[C@@H]5CC6=CC=CC=C6[C@@H]5NC(=O)[C@@H]7CCCN7C(=O)[C@H](C8CCCCC8)NC(=O)[C@H](C)NC)NC [AZD5582] + CS(=O)(=O)CCNCc1ccc(-c2ccc3ncnc(Nc4ccc(OCc5cccc(F)c5)c(Cl)c4)c3c2)o1 [Lapatinib] (partner 2 µM)
Outline: (§1)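 Values are medians from duplicate plates. Each reflects relative viability, defined as the nuclei count of treated wells over that of vehicle wells. Lung cancer cell lines in 1536-well plates were pin-tool dosed one day after seeding with one drug alone or with a fixed anchor-drug dose plus five library-drug doses (not always all listed) in √10 steps, then fixed, stained and imaged at 4× after 5 days.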

AZD5582 + Olaparib = compound: C[C@@H](C(=O)N[C@@H](C1CCCCC1)C(=O)N2CCC[C@H]2C(=O)N[C@@H]3[C@@H](CC4=CC=CC=C34)OCC#CC#CCO[C@@H]5CC6=CC=CC=C6[C@@H]5NC(=O)[C@@H]7CCCN7C(=O)[C@H](C8CCCCC8)NC(=O)[C@H](C)NC)NC [AZD5582] + O=C(c1cc(Cc2n[nH]c(=O)c3ccccc23)ccc1F)N1CCN(C(=O)C2CC2)CC1 [Olaparib] (partner 8 µM)
Outline: as §1

[1] = compound: Cn1nnc2c(C(N)=O)ncn2c1=O [Temozolomide] + Cc1cc(Nc2cc(N3CCN(C)CC3)nc(Sc3ccc(NC(=O)C4CC4)cc3)n2)n[nH]1 [Tozasertib] (partner 0.1 µM)
Outline: as §1

[2] = compound: Cn1nnc2c(C(N)=O)ncn2c1=O [Temozolomide] + Nc1ncn([C@H]2C[C@H](O)[C@@H](CO)O2)c(=O)n1 [Decitabine] (partner 2 µM)
Outline: as §1

Cell Line	relative viability (AZD5582 + Lapatinib; first compound 0.001581 µM)	relative viability (AZD5582 + Lapatinib; first compound 0.005 µM)	relative viability (AZD5582 + Lapatinib; first compound 0.01581 µM)	relative viability (AZD5582 + Lapatinib; first compound 0.05 µM)	relative viability (AZD5582 + Olaparib; first compound 0.001581 µM)	relative viability (AZD5582 + Olaparib; first compound 0.005 µM)	relative viability (AZD5582 + Olaparib; first compound 0.01581 µM)	relative viability (AZD5582 + Olaparib; first compound 0.05 µM)	relative viability ([1]; first compound 0.2 µM)	relative viability ([1]; first compound 0.6325 µM)	relative viability ([1]; first compound 2 µM)	relative viability ([1]; first compound 6.325 µM)	relative viability ([1]; first compound 20 µM)	relative viability ([2]; first compound 0.2 µM)	relative viability ([2]; first compound 0.6325 µM)	relative viability ([2]; first compound 2 µM)	relative viability ([2]; first compound 6.325 µM)	relative viability ([2]; first compound 20 µM)
LK-2	0.654	1.03	0.965	0.952	0.63	0.702	0.772	0.675	0.153	0.155	0.154	0.169	0.151	0.318	0.284	0.263	0.225	0.211
LOU-NH91	0.815	0.817	0.794	0.797	0.875	0.945	0.928	0.903	0.548	0.728	0.687	0.641	0.482	0.699	0.801	0.849	0.815	0.634
LU99A	1.15	1.28	0.923	1.17	0.279	0.264	0.213	0.266	0.259	0.262	0.275	0.259	0.303	0.88	0.833	0.917	0.848	0.776
LXF-289	0.895	0.929	0.823	0.922	0.98	0.995	0.953	1.02	0.241	0.208	0.216	0.169	0.186	0.388	0.403	0.367	0.373	0.391
NCI-H23	0.664	0.951	0.783	0.652	0.272	0.203	0.3	0.236	0.4	0.337	0.35	0.381	0.249	0.303	0.309	0.293	0.292	0.327
NCI-H322M	0.678	0.796	0.619	0.774	0.745	0.865	0.692	0.882		0.508	0.484	0.546	0.4	0.619	0.704	0.697	0.717	0.576
NCI-H358	0.484	0.566	0.477	0.452	0.56	0.702	0.616	0.791	0.0983	0.101	0.104	0.106	0.115	0.19	0.224	0.223	0.228	0.207
NCI-H460	0.836	0.959	0.932	1.43	0.36	0.411	0.345	0.413	0.441	0.418	0.518	0.368	0.339	0.523	0.481	0.479	0.439	0.463
NCI-H520	0.738	0.945	0.818	1.01	0.302	0.274	0.382	0.365	0.474	0.441	0.462	0.428	0.426	0.54	0.467	0.484	0.517	0.548
NCI-H596	0.851	0.829	0.959	0.326	0.566		0.802	0.252	0.978	1.04	0.89	0.769	1.01	1.13	1.07	1.03	1.02	0.905
NCI-H647	0.839	0.943	0.98	0.767	0.492	0.587	0.6	0.589	0.263	0.307	0.412	0.148	0.147	0.339	0.429	0.337	0.283	0.293
NCI-H650	0.592	0.787	0.428	0.606	0.321	0.32	0.366	0.307	0.704	0.771	0.735	0.681	0.804	0.355	0.319	0.348	0.303	0.339
NCI-H661	0.38	0.561	0.53	0.716	0.7	0.758	0.787	0.737	0.351	0.351	0.352	0.362	0.337	0.527	0.598	0.632	0.495	0.545
NCI-H727	0.613	0.868	0.822	0.89	0.698	0.73	0.65	0.781	0.54	0.629	0.764	0.591	0.531		0.876	0.938	0.848	0.838
NCI-H838	0.823	0.964	0.746	0.979	0.744	0.811	0.711	0.743	0.267	0.286	0.309	0.264	0.254	0.493	0.495	0.462	0.439	0.475
NCI-H1355	0.945	0.887	0.952	0.718	0.68	0.728	0.658	0.774	0.583	0.612	0.66	0.548	0.553	0.37	0.4	0.362	0.336	0.34
NCI-H1395	1.08	1.07		1.13	0.445	0.433		0.464	0.726	0.692	0.813	0.677	0.705	0.707	0.716	0.849	0.657	0.717

Cell Line	relative viability (AZD5582 + Lapatinib; first compound 0.001581 µM)	relative viability (AZD5582 + Lapatinib; first compound 0.005 µM)	relative viability (AZD5582 + Lapatinib; first compound 0.01581 µM)	relative viability (AZD5582 + Lapatinib; first compound 0.05 µM)	relative viability (AZD5582 + Olaparib; first compound 0.001581 µM)	relative viability (AZD5582 + Olaparib; first compound 0.005 µM)	relative viability (AZD5582 + Olaparib; first compound 0.01581 µM)	relative viability (AZD5582 + Olaparib; first compound 0.05 µM)	relative viability ([1]; first compound 0.2 µM)	relative viability ([1]; first compound 0.6325 µM)	relative viability ([1]; first compound 2 µM)	relative viability ([1]; first compound 6.325 µM)	relative viability ([1]; first compound 20 µM)	relative viability ([2]; first compound 0.2 µM)	relative viability ([2]; first compound 0.6325 µM)	relative viability ([2]; first compound 2 µM)	relative viability ([2]; first compound 6.325 µM)	relative viability ([2]; first compound 20 µM)
NCI-H1437	0.616	0.759	0.687	0.72	0.711	0.649	0.648	0.623	0.422	0.415	0.422	0.422	0.415	0.604	0.54	0.586	0.61	0.572
NCI-H1650	0.587	0.832	0.581	0.37	0.758	0.668	0.813	0.834	0.484	0.441	0.424	0.353	0.461	0.45	0.422	0.515	0.457	0.532
NCI-H1651	0.862	1.03	0.724	0.988	0.175	0.183	0.18	0.163	0.716	0.779	0.674	0.684	0.684	0.599	0.614	0.656	0.594	0.62
NCI-H1666	0.488	0.712	0.673	0.744	0.766	0.745	0.674	0.77	0.594	0.589	0.631	0.531	0.5	0.706	0.776	0.761	0.686	0.682
NCI-H1734	1.03	1.2	0.99	1.23	0.569	0.59	0.615	0.746	0.305	0.251	0.242	0.284	0.278	0.535	0.536	0.56	0.522	0.452
NCI-H1755	1.01	1.08	0.95	1.03	0.843	0.966	0.938	0.939	0.579	0.549	0.58	0.594	0.528	0.749	0.732	0.676	0.63	0.573
NCI-H1793	0.777	0.898	0.592	0.838	0.674	1.08	0.75	1.23		0.31	0.45	0.325	0.301		0.54	0.624	0.36	0.424
NCI-H1915	0.923	1.02	0.873	0.89	0.279	0.244	0.25	0.226	0.482	0.417	0.471	0.317	0.268	0.246	0.266	0.277	0.268	0.223
NCI-H1944	0.767	0.961	0.82	0.882	0.379	0.403	0.365	0.446	0.241	0.273	0.327	0.284	0.257	0.398	0.389	0.439	0.368	0.399
NCI-H1975	1.01	1.21	0.836	1.2	0.862	1.06	0.764	0.951	0.975	0.718	0.823	0.699	0.737	0.401	0.42	0.399	0.372	0.355
NCI-H1993	0.792	0.82	0.78	0.843	0.982	1.16	1.06	1.12	0.566	0.618	0.616	0.577	0.639	0.535	0.69	0.607	0.654	0.513
NCI-H2009	0.632	0.861	0.452	0.62	0.636	0.703	0.706	0.751	0.821	0.722	0.766	0.762	0.735	0.353	0.404	0.417	0.355	0.397
NCI-H2023	0.64	1.15	0.553	0.462	0.401	0.381	0.48	0.412	0.427	0.361	0.344	0.359	0.403	0.279	0.227	0.225	0.211	0.201
NCI-H2085	0.667	0.818	0.654	0.731	0.842	0.903	0.726	0.733	0.735	0.784	0.86	0.817	0.855	0.63	0.599	0.587	0.589	0.471
NCI-H2087	0.929	1.06	0.808	1.08	0.442	0.604	0.607	0.719	0.273	0.219	0.292	0.286	0.25	0.306	0.314	0.322	0.281	0.299
NCI-H2126	0.845	0.854	0.719	0.75	0.897	0.868	0.861	0.745	0.767	0.864	0.909	0.782	0.87	0.554	0.611	0.596	0.639	0.589
NCI-H2170	0.278	0.288	0.293	0.274	0.561	0.543	0.628	0.688		0.75	0.756	0.668	0.405		0.511	0.45	0.383	0.268
